Source: article PMC3527451, “A Pilot Randomized, Placebo Controlled, Double Blind Phase I Trial of the Novel SIRT1 Activator SRT2104 in Elderly Volunteers” (PLoS ONE, 2012)
Entries after “also recorded” stand apart in the source; their conditions may differ.

Key:
[1] = system: elderly male and female volunteers; assay: Modified oral glucose tolerance test (mOGTT); format: in vivo, human
Protocol: The oral glucose tolerance test (OGTT) allows identification and monitoring of individuals with impaired glucose tolerance and to evaluate the pharmacological effects of glucose lowering agents, [21]. A mOGTT was performed at baseline and on day 29 to assess the pharmacodynamic effects of SRT2104 (or placebo) on glucose, insulin and C-peptide levels. On both occasion, after an overnight fast, subjects were asked to drink a standard glucose beverage containing 75 g of glucose. Blood sample were drawn 10 min before and just prior to the subject consuming the beverage. Additional blood samples were drawn at 10, 20, 30, 60, 90, 120 and 180 minutes after the subject had consumed the glucose beverage. Plasma level of glucose, insulin and C-peptide were measured at each time point. The maximum glucose level (Gmax) was determined, and the area under the plasma glucose concentration–time curve (AUCgluc) was calculated using the trapezoidal rule. AUCgluc60 was defined as the area under the curve from 0 to 60 min after glucose ingestion, the period during which plasma glucose concentration increases. The effects of SRT2104 (or placebo) on glucose, insulin and C-peptide levels and relative AUCs were calculated in each subject as the differences between values at baseline (screening) and after 28 daily administrations of the test material.

[2] = system: CYP2C9; details: human liver microsomes; cited from earlier work
[3] = system: CYP2C19; details: human liver microsomes; cited from earlier work
[4] = system: SIRT2; details: SIRT1 activation over SIRT2; ref SRT2104 Investigator's Brochure; cited from earlier work

In the case of `Cc1nc(-c2cccnc2)sc1C(=O)Nc1ccccc1-c1cn2c(CN3CCOCC3)csc2n1` [SRT2104], the OGTT responses ([1]; 0.5 or 2.0 g for 28 days) is reported as “No significant changes”, the “rise of insulin and C-peptide and peak insulin concentration in OGTT” value ([1]; 2.0 g/day, day 29 relative to baseline) is reported as “trends to reduced rates in the rise of both insulin and C-peptide and a lower peak insulin concentration” and the “insulin and C-peptide levels and relative AUCs in OGTT” value ([1]; baseline vs day 29) is reported as “no statistically significant changes”. The “inhibition of CYP2C9” value [2] was “not an inhibitor; also recorded: does not inhibit”, the “inhibition of CYP2C19” value [3] was “not an inhibitor; also recorded: does not inhibit” and the “fold selectivity as compared to SIRT2” value [4] was over 100.
